Experimental data from patent publication US7524930B2, “Tumor antigen” (Green Peptide Co., Ltd, priority 2003, dated 2009).

Tests used:
Format in all cases: cell-based, human
[1] = test system: peripheral blood mononuclear cells derived from a cancer patient; assay: CTL induction by peptide from autologous PBMC of cancer patient, IFN-γ production on recognition of target cells (Example 5); conditions: for Recognition of tumor cells by PBMC stimulated in vitro with peptide (IFN-γ production): SW620, CA9-22 and Panc-1 HLA-A2+ tumor cells, result in words; for IFN-γ production from peripheral blood mononuclear cells in recognition of target cells: PBMC stimulated with 10 μM peptide
Excerpt: Among the peptides that were able to enhance IFN-γ production from the OK-CTLp or OK-CTL clone in Example 4, those from P1 to P19 were examined for their ability to induce CTL from peripheral blood mononuclear cells derived from a cancer patient. The method for inducing CTL by a peptide was according to the well-known method (J. Exp. Med., 187:277-288, 1998; Cancer Res., 59:4056-4063, 1999.) Specifically, autologous peripheral blood mononuclear cells (PBMC) derived from a cancer patient, from whom OK-CTLp was obtained, were incubated together with the peptide (10 μM.) The cells were re-stimulated at day 10 and 14 after the start of culturing, using autologous PBMCs as an antigen presenting cell (APC) which were pulsed with 10 μM of the same peptide for 2 h and exposed to irradiation (30 gray.) At day 21 after the start of culturing, the cells were collected to test for surface phenotype. In addition, the cells were examined for the recognition of various target cells, using IFN-γ production measured by ELISA when they were cultured together with the target cells as an indicator. As a target cells, SW620 cell, CA9-22 cell, and Panc-1 cell, which are the HLA-A2^+ tumor cells, were used.

[2] = test system: peripheral blood mononuclear cells derived from a cancer patient; assay: as above; conditions: PBMC stimulated with 10 μM peptide
[3] = test system: OK-CTL clone; assay: IFN-γ production by OK-CTL clones cultured with COS-7 cells cotransfected with cDNA clone and HLA-A0207 cDNA; set-up: unit not given here
Protocol: Since CTL activated by recognizing the tumor antigen is a population of cells recognizing plural kinds of tumor antigens, the above-described OK-CTLp was subjected to cloning by limiting dilution culture (0.3, 0.5, 1, 2, and 4 cells/well) to obtain an OK-CTL clone (J. Immunol., 163:4994-5004, 1999. ) These clones are those having CTL activity selected by culturing them together with COS-7 cells into which 100 ng/well of any one of the above-described seven cDNA clones and 100 ng/well of HLA-A0207 cDNA were cotransfected, or with the tumor cells, in a cell ratio of 1:1, and measuring IFN-γ production. Specifically, three hundred CTL clones were obtained from the parent line OK-CTLp by a limiting dilution culture. Eighty CTL clones among them had HLA-A2-restricted tumor-specific CTL activity and expressed the phenotype of CD3^+ CD4^− CD8^+ and TCR αβ^+.

[4] = CTL clone 0.5-1-D6, cDNA with HLA-A0207 cDNA in COS-7
[5] = CTL clone 0.5-1-D7, cDNA with HLA-A0207 cDNA in COS-7
[6] = CTL clone 0.5-1-H2, cDNA with HLA-A0207 cDNA in COS-7
[7] = CTL clone 0.5-1-H12, cDNA with HLA-A0207 cDNA in COS-7
[8] = CTL clone 0.5-2-A4, cDNA with HLA-A0207 cDNA in COS-7
[9] = CTL clone 1-2-D1, cDNA with HLA-A0207 cDNA in COS-7
[10] = CTL clone 1-2-D7, cDNA with HLA-A0207 cDNA in COS-7
[11] = CTL clone 1-2-D12, cDNA with HLA-A0207 cDNA in COS-7
[12] = CTL clone 2-1-F4, cDNA with HLA-A0207 cDNA in COS-7
[13] = CTL clone 2-1-H12, cDNA with HLA-A0207 cDNA in COS-7
[14] = CTL clone 2-2-B4, cDNA with HLA-A0207 cDNA in COS-7
[15] = CTL clone 2-2-H3, cDNA 100 ng/well with HLA-A0207 cDNA in COS-7
[16] = CTL clone 4-1-H8, cDNA with HLA-A0207 cDNA in COS-7
[17] = CTL clone 4-2-A11, cDNA with HLA-A0207 cDNA in COS-7
[18] = CTL clone 4-2-B3, cDNA with HLA-A0207 cDNA in COS-7

ILPRKHHRI (Designed peptide having an ability to activate HLA-A2 restricted Cytotoxic T lymphocytes) [Peptide P5, Gene 1 (UBE2V) 208-216]
Recognition of tumor cells by PBMC stimulated in vitro with peptide (IFN-γ production) [1]: produced IFN-γ in a significant amount | IFN-γ production from peripheral blood mononuclear cells in recognition of target cells ([1]; target CA9-22 (HLA-A0207/24)): 96 pg/mL | IFN-γ production from peripheral blood mononuclear cells in recognition of target cells ([1]; target Panc-1 (HLA-A0201/11)): 638 pg/mL | IFN-γ production from peripheral blood mononuclear cells in recognition of target cells ([1]; target SW620 (HLA-A0201/24)): 500 pg/mL | IFN-γ production from peripheral blood mononuclear cells in recognition of target cells ([2]; target COLO320 (HLA-A24/24)): 38 pg/mL | IFN-γ production from peripheral blood mononuclear cells in recognition of target cells ([2]; target QG56 (HLA-A26/26)): 0 pg/mL | IFN-γ production from peripheral blood mononuclear cells in recognition of target cells ([2]; target RERF-LC-MS (HLA-A11/11)): 0 pg/mL

TLLRKERGV (Designed peptide having an ability to activate HLA-A2 restricted Cytotoxic T lymphocytes) [Peptide P13, Gene 3 (WHSC2) 267-275]
Recognition of tumor cells by PBMC stimulated in vitro with peptide (IFN-γ production) [1]: produced IFN-γ in a significant amount | IFN-γ production from peripheral blood mononuclear cells in recognition of target cells ([1]; target CA9-22 (HLA-A0207/24)): 95 pg/mL | IFN-γ production from peripheral blood mononuclear cells in recognition of target cells ([1]; target Panc-1 (HLA-A0201/11)): 115 pg/mL | IFN-γ production from peripheral blood mononuclear cells in recognition of target cells ([1]; target SW620 (HLA-A0201/24)): 151 pg/mL | IFN-γ production from peripheral blood mononuclear cells in recognition of target cells ([2]; target COLO320 (HLA-A24/24)): 0 pg/mL | IFN-γ production from peripheral blood mononuclear cells in recognition of target cells ([2]; target QG56 (HLA-A26/26)): 0 pg/mL | IFN-γ production from peripheral blood mononuclear cells in recognition of target cells ([2]; target RERF-LC-MS (HLA-A11/11)): 15 pg/mL

Clone 5: cDNA clone from Panc-1, 2404 bp [AB044546], homology with ppMAPkkk
IFN-γ production by CTL clone [3, 4]: 0 | IFN-γ production by CTL clone [3, 5]: 0 | IFN-γ production by CTL clone [3, 6]: 81 | IFN-γ production by CTL clone [3, 7]: 0 | IFN-γ production by CTL clone [3, 8]: 0 | IFN-γ production by CTL clone [3, 9]: 0 | IFN-γ production by CTL clone [3, 10]: 0 | IFN-γ production by CTL clone [3, 11]: 0 | IFN-γ production by CTL clone [3, 12]: >1000 | IFN-γ production by CTL clone [3, 13]: 0 | IFN-γ production by CTL clone [3, 14]: 0 | IFN-γ production by CTL clone [3, 15]: 0 | IFN-γ production by CTL clone [3, 16]: 0 | IFN-γ production by CTL clone [3, 17]: 0 | IFN-γ production by CTL clone [3, 18]: 0

clone 3: cDNA clone from Panc-1, 2243 bp [AB044549], high homology with WHSC2
IFN-γ production by CTL clone [3, 4]: 0 | IFN-γ production by CTL clone [3, 5]: 0 | IFN-γ production by CTL clone [3, 6]: 0 | IFN-γ production by CTL clone [3, 7]: 0 | IFN-γ production by CTL clone [3, 8]: 0 | IFN-γ production by CTL clone [3, 9]: 22 | IFN-γ production by CTL clone [3, 10]: 0 | IFN-γ production by CTL clone [3, 11]: 0 | IFN-γ production by CTL clone [3, 12]: 0 | IFN-γ production by CTL clone [3, 13]: 0 | IFN-γ production by CTL clone [3, 14]: 0 | IFN-γ production by CTL clone [3, 15]: 0 | IFN-γ production by CTL clone [3, 16]: 0 | IFN-γ production by CTL clone [3, 17]: 100 | IFN-γ production by CTL clone [3, 18]: 0

clone 1: cDNA clone from Panc-1, 1775 bp [AB044550], high homology with UBE2V
IFN-γ production by CTL clone [3, 4]: 19 | IFN-γ production by CTL clone [3, 5]: 27 | IFN-γ production by CTL clone [3, 6]: 0 | IFN-γ production by CTL clone [3, 7]: 0 | IFN-γ production by CTL clone [3, 8]: 0 | IFN-γ production by CTL clone [3, 9]: 21 | IFN-γ production by CTL clone [3, 10]: 0 | IFN-γ production by CTL clone [3, 11]: 0 | IFN-γ production by CTL clone [3, 12]: 0 | IFN-γ production by CTL clone [3, 13]: 134 | IFN-γ production by CTL clone [3, 14]: 0 | IFN-γ production by CTL clone [3, 15]: 110 | IFN-γ production by CTL clone [3, 16]: 0 | IFN-γ production by CTL clone [3, 17]: 0 | IFN-γ production by CTL clone [3, 18]: 0

clone 6: cDNA clone from Panc-1, 6707 bp [AB044545], homology with 2-5 OAS3
IFN-γ production by CTL clone [3, 4]: 13 | IFN-γ production by CTL clone [3, 5]: 110 | IFN-γ production by CTL clone [3, 6]: 0 | IFN-γ production by CTL clone [3, 7]: 0 | IFN-γ production by CTL clone [3, 8]: 113 | IFN-γ production by CTL clone [3, 9]: 61 | IFN-γ production by CTL clone [3, 10]: 0 | IFN-γ production by CTL clone [3, 11]: 0 | IFN-γ production by CTL clone [3, 12]: 0 | IFN-γ production by CTL clone [3, 13]: 0 | IFN-γ production by CTL clone [3, 14]: >1000 | IFN-γ production by CTL clone [3, 15]: 0 | IFN-γ production by CTL clone [3, 16]: 0 | IFN-γ production by CTL clone [3, 17]: 0 | IFN-γ production by CTL clone [3, 18]: 0

clone 2: cDNA clone from Panc-1, 2097 bp [AB044547], high homology with HNRPL
IFN-γ production by CTL clone [3, 4]: 0 | IFN-γ production by CTL clone [3, 5]: 34 | IFN-γ production by CTL clone [3, 6]: 0 | IFN-γ production by CTL clone [3, 7]: 0 | IFN-γ production by CTL clone [3, 8]: 0 | IFN-γ production by CTL clone [3, 9]: 0 | IFN-γ production by CTL clone [3, 10]: 200 | IFN-γ production by CTL clone [3, 11]: >1000 | IFN-γ production by CTL clone [3, 12]: 0 | IFN-γ production by CTL clone [3, 13]: 0 | IFN-γ production by CTL clone [3, 14]: 0 | IFN-γ production by CTL clone [3, 15]: 0 | IFN-γ production by CTL clone [3, 16]: 133 | IFN-γ production by CTL clone [3, 17]: 0 | IFN-γ production by CTL clone [3, 18]: 0

B1: clone 4: cDNA clone from Panc-1, 831 bp [AB044548], high homology with EIF4EBP1 (nucleic acid, listed as Homo sapiens)
DNA: GCGGGAGGGCAGCGAGAGGTTCGCGGGTGCAGCGCACAGGAGACCATGTCCGGGGGCAGCAGCTGCAGCCAGACCCCAAGCCGGGCCATCCCCGCCACTCGCCGGGTGGTGCTCGGCGACGGCGTGCAGCTCCCGCCCGGGGACTACAGCACGACCCCCGGCGGCACGCTCTTCAGCACCACCCCGGGAGGTACCAGGATCATCTATGACCGGAAATTCCTGATGGAGTGTCGGAACTCACCTGTGACCAAAACACCCCCAAGGGATCTGCCCACCATTCCGGGGGTCACCAGCCCTTCCAGTGATGAGCCCCCCATGGAAGCCAGCCAGAGCCACCTGCGCAATAGCCCAGAAGATAAGCGGGCGGGCGGTGAAGAGTCACAGTTTGAGATGGACATTTAAAGCACCAGCCATCGTGTGGAGCACTACCAAGGGGCCCCTCAGGGCCTTCCTGGGAGGAGTCCCACCAGCCAGGCCTTATGAAAGTGATCATACTGGGCAGGCGTTGGCGTGGGGTCGGACACCCCAGCCCTTTCTCCCTCACTCAGGGCACCTGCCCCCTCCTCTTCGTGAACACCAGCAGATACCTCCTTGTGCCTCCACTGATGCAGGAGCTGCCACCCCAAGGGGAGTGACCCCTGCCAGCACACCCTGCAGCCAAGGGCCAGGAAGTGGACAAGAACGAACCCTTCCTTCCGAATGATCAGCAGTTCCAGCCCCTCGCTGCTGGGGGCGCAACCACCCCTTCCTTAGGTTGATGTGCTTGGGAAAGCTCCCTCCCCCTCCTTCCCCAAGAGAGGAAATAAAAGCCACCTTCGCCCTAGGGCCAAG
modifications: polyA_site (831)..(831)
IFN-γ production by CTL clone [3, 4]: 118 | IFN-γ production by CTL clone [3, 5]: 0 | IFN-γ production by CTL clone [3, 6]: 0 | IFN-γ production by CTL clone [3, 7]: >1000 | IFN-γ production by CTL clone [3, 8]: 0 | IFN-γ production by CTL clone [3, 9]: 44 | IFN-γ production by CTL clone [3, 10]: 0 | IFN-γ production by CTL clone [3, 11]: 0 | IFN-γ production by CTL clone [3, 12]: 0 | IFN-γ production by CTL clone [3, 13]: 0 | IFN-γ production by CTL clone [3, 14]: 0 | IFN-γ production by CTL clone [3, 15]: 0 | IFN-γ production by CTL clone [3, 16]: 0 | IFN-γ production by CTL clone [3, 17]: 0 | IFN-γ production by CTL clone [3, 18]: 95
